We go through 19 compounds from patent US8440652B2, “MST1 kinase inhibitors and methods of their use” (Lexicon Pharmaceuticals, Inc., priority 2011, dated 2013).

In general, IC50 refers to the concentration that gives 50% inhibition.

For experiment [1], the system named is Con-A induced hepatitis model. Kind of experiment: Con-A induced hepatitis model. It counts as in vivo, mouse. As to conditions: mice, 1, 3, 10, 30 mg/kg PO 16 h and 1 h before and 8 h after Con-A challenge; FIG. 8. The method, then: This model was generally conducted as follows. C57Bl/6-Albino/129SvEv mice were injected intravenously (i/v) via the lateral tail vein with a single sublethal dose of Concanavalin A from Canavalia ensiformis (Jack bean, Type IV-S, lyophilized powder, aseptically processed; Sigma) administered at 10-16 mg/kg mouse body weight in a total volume of 0.1-0.3 ml of pyrogen-free PBS. The tail vein injections of mice restrained in a Plexiglas mouse restrainer were performed without anesthesia, using a 1 ml syringe with a 27 gauge needle. At six and 24 hr post-injection, blood samples were collected by retro-orbital bleeding. The animals were sacrificed and sera from the blood samples were analyzed for the presence of IL-12, TNF-α, MCP-1, IFN-γ, IL-10, and IL-6 using a mouse inflammation cytometric bead array (CBA) kit (BD Biosciences, Mountain View, Calif.), according to the manufacturer's instructions. Data were acquired with a FACSCalibur flow cytometer and analyzed with BD CBA Software (BD Biosciences). Biochemical markers of liver failure were assessed by measuring serum liver damage enzymes, aspartate aminotransferase (AST) and alanine aminotransferase (ALT), using a standard clinical biochemical analyzer. Livers of ConA-treated mice were sectioned and stained with H&E to evaluate the degree of T cell-mediated immune inflammation.

The next experiment concerns rat EAE model. Kind of experiment: Rat EAE disease model. Format: in vivo. As to conditions: rats, 0.3, 1, 3 or 10 mg/kg PO QD from Day 10 after immunization; FIG. 7A.
The next experiment addresses T1, MST1 (Homo sapiens, UniProt Q13043).
T1 sequence (Q13043 1-487): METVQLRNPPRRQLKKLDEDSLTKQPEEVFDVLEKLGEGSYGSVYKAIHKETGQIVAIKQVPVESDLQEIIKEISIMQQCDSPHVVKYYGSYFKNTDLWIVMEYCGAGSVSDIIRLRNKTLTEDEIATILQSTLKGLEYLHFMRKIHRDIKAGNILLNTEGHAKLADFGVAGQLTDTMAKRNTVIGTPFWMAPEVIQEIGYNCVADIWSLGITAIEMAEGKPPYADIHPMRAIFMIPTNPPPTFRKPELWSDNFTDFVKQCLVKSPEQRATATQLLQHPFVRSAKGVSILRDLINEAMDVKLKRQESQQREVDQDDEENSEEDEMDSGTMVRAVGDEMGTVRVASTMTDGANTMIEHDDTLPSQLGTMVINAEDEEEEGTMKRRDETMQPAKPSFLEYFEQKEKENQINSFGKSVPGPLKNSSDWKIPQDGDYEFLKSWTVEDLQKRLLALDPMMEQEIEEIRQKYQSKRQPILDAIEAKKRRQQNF
As to the kind of experiment: In vitro measurement of MST1 inhibition (Z′-Lyte kinase assay). It counts as biochemical.

Where [2] appears, read: 1 μM ATP, read-out: IC50 (μM) 1 μM ATP.
Setting [3] is: 50 μM ATP, read-out: IC50 (μM) 50 μM ATP.

Read-outs that look alike come from different tables or passages of the source. Where only a bound is given, the exact number is not on record here.

With `N#CC1(c2ccc(-c3cnc(N)c(-c4ccc5c(c4)CCNC5=O)n3)cc2)CC1` [1-(4-(5-amino-6-(1-oxo-1,2,3,4-tetrahydroisoquinolin-6-yl)pyrazin-2-yl)phenyl)cyclopropanecarbonitrile], the “TNF-α, IL-6, MCP-1, IFN-γ, ALT and AST” value in experiment [1] is “clear effect”. The “severity of clinical score” value in the experiment on rat EAE model was “dose-dependent reduction in severity of clinical score”. Further, the half-maximal inhibitory concentration (IC50) on MST1 (setting [2]) was under 0.05 µM; on MST1 (setting [3]) it was under 0.01 µM.

On to `CCN(C)S(=O)(=O)c1ccc(-c2cnc(N)c(-c3ccc4c(c3)CCNC4=O)c2)nc1` [6′-amino-N-ethyl-N-methyl-5′-(1-oxo-1,2,3,4-tetrahydroisoquinolin-6-yl)-[2,3′-bipyridine]-5-sulfonamide], for which the 50% inhibitory concentration (IC50) at MST1 (setting [2]) and on MST1 (setting [3]) was under 0.01 µM throughout.

Take `CCCN(C)S(=O)(=O)c1ccc(-c2cnc(N)c(-c3ccc4c(c3)CCNC4=O)c2)nc1` [6′-amino-N-methyl-5′-(1-oxo-1,2,3,4-tetrahydroisoquinolin-6-yl)-N-propyl-[2,3′-bipyridine]-5-sulfonamide]: the IC50 on MST1 (setting [2]) and on MST1 (setting [3]) was under 0.01 µM each time.

Take `N#C[C@]1(c2ccc(-c3cnc(N)c(-c4ccc5c(c4)CCNC5=O)n3)cc2)[C@@H]2COC[C@@H]21` [(1R,5S,6s)-6-(4-(5-amino-6-(1-oxo-1,2,3,4-tetrahydroisoquinolin-6-yl)pyrazin-2-yl)phenyl)-3-oxabicyclo[3.1.0]hexane-6-carbonitrile]: the half-maximal inhibitory concentration (IC50) at MST1 (setting [2]) was under 0.05 µM; at MST1 (setting [3]), under 0.01 µM.

With `CCNS(=O)(=O)c1ccc(-c2cnc(N)c(-c3ccc4c(c3)CCC/C4=N\O)c2)cc1` [(E)-4-(6-amino-5-(5-(hydroxyimino)-5,6,7,8-tetrahydronaphthalen-2-yl)pyridin-3-yl)-N-ethylbenzenesulfonamide], the half-inhibitory concentration (IC50) at MST1 (setting [2]) was under 0.05 µM; at MST1 (setting [3]), under 0.01 µM.

Regarding `CN(C1CC1)S(=O)(=O)c1ccc(-c2cnc(N)c(-c3ccc4c(c3)OC[C@@H](COCc3ccccc3)NC4=O)c2)cc1` [(R)-4-(6-amino-5-(3-((benzyloxy)methyl)-5-oxo-2,3,4,5-tetrahydrobenzo[f][1,4]oxazepin-8-yl)pyridin-3-yl)-N-cyclopropyl-N-methylbenzenesulfonamide], the IC50 on MST1 (setting [2]) was under 0.15 µM; on MST1 (setting [3]), under 0.01 µM.

For `C[C@@H]1COc2cc(-c3cc(-c4ccc(S(=O)(=O)N(C)C5CC5)cc4)cnc3N)ccc2C(=O)N1` [(R)-4-(6-amino-5-(3-methyl-5-oxo-2,3,4,5-tetrahydrobenzo[f][1,4]oxazepin-8-yl)pyridin-3-yl)-N-cyclopropyl-N-methylbenzenesulfonamide], the IC50 at MST1 (setting [2]) and at MST1 (setting [3]) was under 0.01 µM throughout.

For the compound `C[C@H]1CNc2cc(-c3nc(-c4ccc(S(=O)(=O)N(C)C5CC5)cc4)cnc3N)ccc2C(=O)N1` [(S)-4-(5-amino-6-(3-methyl-5-oxo-2,3,4,5-tetrahydro-1H-benzo[e][1,4]diazepin-8-yl)pyrazin-2-yl)-N-cyclopropyl-N-methylbenzenesulfonamide], the IC50 at MST1 (setting [2]) and on MST1 (setting [3]) was under 0.01 µM in each case.

As to `CN(C1CC1)S(=O)(=O)c1ccc(-c2cnc(N)c(-c3ccc4c(c3)OC[C@H](CO)NC4=O)c2)cc1` [(S)-4-(6-amino-5-(3-(hydroxymethyl)-5-oxo-2,3,4,5-tetrahydrobenzo[f][1,4]oxazepin-8-yl)pyridin-3-yl)-N-cyclopropyl-N-methylbenzenesulfonamide], the IC50 at MST1 (setting [2]) and at MST1 (setting [3]) was under 0.01 µM each time.

Take `C[C@H]1CNc2cc(-c3cc(-c4ccc(S(=O)(=O)N(C)C5CC5)cc4)cnc3N)ccc2C(=O)N1` [(S)-4-(6-amino-5-(3-methyl-5-oxo-2,3,4,5-tetrahydro-1H-benzo[e][1,4]diazepin-8-yl)pyridin-3-yl)-N-cyclopropyl-N-methylbenzenesulfonamide]: the IC50 at MST1 (setting [2]) and at MST1 (setting [3]) was under 0.01 µM in each case.

On to `C[C@H]1CNc2cc(-c3cc(-c4ccc(S(=O)(=O)NC5CC5)cc4)cnc3N)ccc2C(=O)N1` [(S)-4-(6-amino-5-(3-methyl-5-oxo-2,3,4,5-tetrahydro-1H-benzo[e][1,4]diazepin-8-yl)pyridin-3-yl)-N-cyclopropylbenzenesulfonamide], for which the IC50 on MST1 (setting [2]) and at MST1 (setting [3]) was under 0.01 µM throughout.

For `C[C@H]1COc2cc(-c3cc(-c4ccc(S(=O)(=O)N(C)C5CC5)cc4)cnc3N)ccc2C(=O)N1` [(S)-4-(6-amino-5-(3-methyl-5-oxo-2,3,4,5-tetrahydrobenzo[f][1,4]oxazepin-8-yl)pyridin-3-yl)-N-cyclopropyl-N-methylbenzenesulfonamide], the half-maximal inhibitory concentration (IC50) on MST1 (setting [2]) is under 0.05 µM; at MST1 (setting [3]), under 0.01 µM.

As to `CC(=O)NCc1ccc(-c2cnc(N)c(-c3ccc4c(c3)CCNC4=O)c2)cc1` [N-(4-(6-amino-5-(1-oxo-1,2,3,4-tetrahydroisoquinolin-6-yl)pyridin-3-yl)benzyl)acetamide], the IC50 is under 0.05 µM at MST1 (setting [2]) and under 0.01 µM on MST1 (setting [3]).

For the compound `CCS(=O)(=O)Nc1ccc(-c2cnc(N)c(-c3ccc4c(c3)CCNC4=O)c2)cc1` [N-(4-(6-amino-5-(1-oxo-1,2,3,4-tetrahydroisoquinolin-6-yl)pyridin-3-yl)phenyl)ethanesulfonamide], the results for the IC50 on MST1 (setting [2]) and on MST1 (setting [3]) were under 0.05 µM and under 0.01 µM, respectively.

In the case of `C=CCN(C)S(=O)(=O)c1ccc(-c2cnc(N)c(-c3ccc4c(c3)CCNC4=O)c2)cc1` [N-allyl-4-(6-amino-5-(1-oxo-1,2,3,4-tetrahydroisoquinolin-6-yl)pyridin-3-yl)-N-methylbenzenesulfonamide], the IC50 at MST1 (setting [2]) and at MST1 (setting [3]) was under 0.01 µM each time.

As to `O=C1NCCc2cc(-c3c[nH]c4ncc(-c5ccc(S(=O)(=O)NC6CC6)cc5)cc34)ccc21` [N-cyclopropyl-4-(3-(1-oxo-1,2,3,4-tetrahydroisoquinolin-6-yl)-1H-pyrrolo[2,3-b]pyridin-5-yl)benzenesulfonamide], the half-maximal inhibitory concentration (IC50) at MST1 (setting [2]) is under 0.05 µM; at MST1 (setting [3]), under 0.01 µM.

For the compound `CCOC(=O)Cc1ccc(-c2cnc(N)c(-c3ccc4c(c3)CCNC4=O)n2)cc1` [ethyl 2-(4-(5-amino-6-(1-oxo-1,2,3,4-tetrahydroisoquinolin-6-yl)pyrazin-2-yl)phenyl)acetate], the concentration for half-maximal inhibition (IC50) on MST1 (setting [2]) is under 0.15 µM; on MST1 (setting [3]), under 0.05 µM.

As to `COC(=O)CN(C)S(=O)(=O)c1ccc(-c2cnc(N)c(-c3ccc4c(c3)CCNC4=O)c2)cc1` [methyl 2-(4-(6-amino-5-(1-oxo-1,2,3,4-tetrahydroisoquinolin-6-yl)pyridin-3-yl)-N-methylphenylsulfonamido)acetate], the IC50 at MST1 (setting [2]) was under 0.15 µM; at MST1 (setting [3]), under 0.05 µM.

With `CC(C)(C)OC(=O)N1CC=C(c2cnc(N)c(-c3ccc4c(c3)CCNC4=O)c2)CC1` [tert-butyl 6-amino-5-(1-oxo-1,2,3,4-tetrahydroisoquinolin-6-yl)-5′,6′-dihydro-[3,4′-bipyridine]-1′(2′H)-carboxylate], the half-inhibitory concentration (IC50) at MST1 (setting [2]) was under 0.15 µM; at MST1 (setting [3]), under 0.05 µM.
